Legend:
Type in all cases: cell-based
PR = molecular target: T1, PR (Homo sapiens, UniProt P06401); experiment: co-transfection assay, PR agonist
T1 construct: expressed in transfected cells; host or cells: CV-1 cells
T1 sequence (P06401 1-933): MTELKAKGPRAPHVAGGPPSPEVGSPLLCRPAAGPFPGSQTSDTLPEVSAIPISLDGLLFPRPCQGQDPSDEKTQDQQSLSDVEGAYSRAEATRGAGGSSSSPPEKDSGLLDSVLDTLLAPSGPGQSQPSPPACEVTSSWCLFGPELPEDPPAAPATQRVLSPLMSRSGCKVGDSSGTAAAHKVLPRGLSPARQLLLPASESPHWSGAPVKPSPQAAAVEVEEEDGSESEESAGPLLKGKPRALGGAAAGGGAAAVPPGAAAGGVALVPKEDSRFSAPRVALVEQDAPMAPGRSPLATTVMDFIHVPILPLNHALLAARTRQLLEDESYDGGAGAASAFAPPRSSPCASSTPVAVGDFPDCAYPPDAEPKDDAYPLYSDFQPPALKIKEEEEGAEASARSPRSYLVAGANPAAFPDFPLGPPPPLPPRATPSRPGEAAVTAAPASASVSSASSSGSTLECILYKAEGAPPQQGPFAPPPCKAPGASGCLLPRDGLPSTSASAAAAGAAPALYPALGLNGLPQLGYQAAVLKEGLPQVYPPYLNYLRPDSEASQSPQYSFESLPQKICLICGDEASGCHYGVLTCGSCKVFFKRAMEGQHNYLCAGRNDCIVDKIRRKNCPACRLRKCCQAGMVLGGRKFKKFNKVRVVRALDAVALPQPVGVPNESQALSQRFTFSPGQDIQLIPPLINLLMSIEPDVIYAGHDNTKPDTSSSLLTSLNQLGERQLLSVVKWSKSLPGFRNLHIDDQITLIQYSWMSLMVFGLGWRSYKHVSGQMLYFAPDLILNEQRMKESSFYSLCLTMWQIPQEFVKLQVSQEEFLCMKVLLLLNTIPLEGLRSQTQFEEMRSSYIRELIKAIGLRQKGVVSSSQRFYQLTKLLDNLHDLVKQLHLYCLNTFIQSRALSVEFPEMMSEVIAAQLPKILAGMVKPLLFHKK
Method: (§1) CV-1 cells (African green monkey kidney fibroblasts) were cultured in the presence of Dulbecco's Modified Eagle Medium (DMEM) supplemented with 10% charcoal resin-stripped fetal bovine serum (CH-FBS) then transferred to 96-well microtiter plates one day prior to transfection.
(§2) Three to four replicates were used for each sample.
(§3) After 40 hours, the cells were washed with PBS, lysed with a Triton X-100-based buffer and assayed for LUC and β-Gal activities using a luminometer or spectrophotometer, respectively. For each replicate, the normalized response (NR) was calculated as: […]

MR = molecular target: T2, MR (Homo sapiens, UniProt P08235); experiment: co-transfection assay, MR antagonist
T2 construct: expressed in transfected cells; host or cells: CV-1 cells
T2 sequence (P08235 1-984): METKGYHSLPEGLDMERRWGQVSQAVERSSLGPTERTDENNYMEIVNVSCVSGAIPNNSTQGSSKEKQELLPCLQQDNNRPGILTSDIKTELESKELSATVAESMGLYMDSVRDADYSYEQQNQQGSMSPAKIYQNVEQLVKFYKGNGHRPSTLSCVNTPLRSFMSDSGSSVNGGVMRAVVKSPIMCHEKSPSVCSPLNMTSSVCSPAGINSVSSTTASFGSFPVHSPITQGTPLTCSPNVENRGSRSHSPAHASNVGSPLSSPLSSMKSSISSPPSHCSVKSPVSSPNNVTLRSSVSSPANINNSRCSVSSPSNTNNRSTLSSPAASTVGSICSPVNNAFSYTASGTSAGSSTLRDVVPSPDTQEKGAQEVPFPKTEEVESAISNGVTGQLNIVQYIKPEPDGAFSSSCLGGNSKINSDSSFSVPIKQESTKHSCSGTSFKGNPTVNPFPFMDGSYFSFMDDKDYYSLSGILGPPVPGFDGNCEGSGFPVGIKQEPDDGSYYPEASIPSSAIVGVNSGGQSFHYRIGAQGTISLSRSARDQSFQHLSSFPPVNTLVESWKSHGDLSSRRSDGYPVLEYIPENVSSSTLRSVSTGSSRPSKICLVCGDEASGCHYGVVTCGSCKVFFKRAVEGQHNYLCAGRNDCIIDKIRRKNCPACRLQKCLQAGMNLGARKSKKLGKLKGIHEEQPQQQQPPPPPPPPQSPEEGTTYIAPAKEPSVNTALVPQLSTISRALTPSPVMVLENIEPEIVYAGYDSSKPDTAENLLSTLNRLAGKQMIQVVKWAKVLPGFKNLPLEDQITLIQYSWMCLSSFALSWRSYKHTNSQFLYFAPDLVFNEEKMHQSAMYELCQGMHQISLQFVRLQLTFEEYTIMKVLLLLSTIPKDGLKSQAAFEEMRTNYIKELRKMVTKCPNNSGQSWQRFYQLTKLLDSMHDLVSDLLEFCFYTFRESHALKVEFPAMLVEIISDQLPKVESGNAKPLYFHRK
Method: as §1, §2, §3

hAR = molecular target: T3, hAR (Homo sapiens, UniProt P10275); experiment: co-transfection assay, AR antagonist (in presence of DHT), CV-1 cells; conditions: for AR Antagonist CV-1 Cells Efficacy (%): hAR in CV-1 cells, maximal inhibition, DHT at EC50
T3 construct: expressed in transfected cells; host or cells: CV-1 cells (African green monkey kidney fibroblasts)
T3 sequence (P10275 1-920): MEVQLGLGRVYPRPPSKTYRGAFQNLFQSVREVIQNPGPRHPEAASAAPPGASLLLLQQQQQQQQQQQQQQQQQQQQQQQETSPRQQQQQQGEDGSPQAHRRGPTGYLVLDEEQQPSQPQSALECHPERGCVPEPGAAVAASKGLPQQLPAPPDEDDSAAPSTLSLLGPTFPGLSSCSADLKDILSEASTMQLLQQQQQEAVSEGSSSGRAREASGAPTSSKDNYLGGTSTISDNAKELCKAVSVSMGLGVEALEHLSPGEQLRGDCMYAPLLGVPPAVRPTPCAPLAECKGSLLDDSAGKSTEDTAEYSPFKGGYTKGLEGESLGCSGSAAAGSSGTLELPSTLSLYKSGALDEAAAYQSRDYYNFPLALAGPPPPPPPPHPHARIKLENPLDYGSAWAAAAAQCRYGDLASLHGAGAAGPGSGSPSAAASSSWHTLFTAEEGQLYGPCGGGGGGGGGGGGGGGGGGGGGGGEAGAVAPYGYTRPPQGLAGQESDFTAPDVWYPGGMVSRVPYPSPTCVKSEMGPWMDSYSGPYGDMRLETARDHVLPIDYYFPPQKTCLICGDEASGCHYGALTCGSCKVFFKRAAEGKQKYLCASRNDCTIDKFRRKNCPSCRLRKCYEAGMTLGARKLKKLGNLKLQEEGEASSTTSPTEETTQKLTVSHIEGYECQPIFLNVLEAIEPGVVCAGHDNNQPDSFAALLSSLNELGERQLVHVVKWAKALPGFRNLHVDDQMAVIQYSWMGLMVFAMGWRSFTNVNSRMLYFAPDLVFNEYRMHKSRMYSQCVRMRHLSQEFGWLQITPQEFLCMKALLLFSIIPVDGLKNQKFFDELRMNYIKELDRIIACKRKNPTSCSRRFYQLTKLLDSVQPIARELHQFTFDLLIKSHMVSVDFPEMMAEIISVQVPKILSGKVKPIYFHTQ

SMILES | EC50 (PR) | IC50 (MR) | IC50 (hAR) | AR Antagonist CV-1 Cells Efficacy (%) (hAR)
CN1CCOc2cc3c(cc21)c(C(F)(F)F)cc(=O)n3C [Compound 102, 1,2,3,6-Tetrahydro-1,6-dimethyl-9-(trifluoromethyl)-7H-[1,4]oxazino[3,2-g]quinolin-7-one] | > 10 µM | > 10 µM | 22 nM | 58%
CCN1CCOc2cc3c(cc21)c(C(F)(F)F)cc(=O)n3C [Compound 104, 1-Ethyl-1,2,3,6-tetrahydro-6-methyl-9-(trifluoromethyl)-7H-[1,4]oxazino[3,2-g]quinolin-7-one] | > 10 µM | 1.8 µM | 26 nM | 68%
O=c1cc(C(F)(F)F)c2cc3c(cc2[nH]1)OCCN3CC(F)(F)F [Compound 105, 1,2,3,6-Tetrahydro-1-(2,2,2-trifluoroethyl)-9-(trifluoromethyl)-7H-[1,4]oxazino[3,2-g]quinolin-7-one] | > 10 µM | > 10 µM |  | 
O=C1COc2cc3[nH]c(=O)cc(C(F)(F)F)c3cc2N1CC(F)(F)F [Compound 137, 1,6-Dihydro-1-(2,2,2-trifluoroethyl)-9-(trifluoromethyl)-3H-[1,4]oxazino[3,2-g]-quinolin-2,7-dione] | > 10 µM | > 10 µM | 18 nM | 84%

— US6462038B1, “Androgen receptor modulator compounds and methods” (Ligand Pharmaceuticals, Inc., priority 1999, dated 2002)
